Source: paper PMC10700596 (Nature Communications, 2023)
Where “and” joins values, the source holds several entries; their conditions need not be identical. Equal entries are not always repeated. Where two headings read alike, the source gives them in different places.

Assay: in vivo
Assay type: in vivo, mice
Details: mice; for CSF concentration, Final / Brain concentration, Final / Plasma concentration, Final: listed as 7827_0016, 10 mg/kg

O=C(O)C1CCC2(CC1)CC(Nc1ncnc3[nH]c4c(F)cccc4c13)C2 (stereo not drawn) [Compound 74, OC(=O)C1CCC2(CC(C2)NC=3N=CN=C4NC=5C(F)=CC=CC5C34)CC1]
concentration at 240 min (male, CD-1, mouse, brain, ip, 10 mg/kg, IP 10 mg/kg, brain, 240 min, mean, read-out: Brain concentrations of cmpd 7827_0016 in mice following IP (10 mg/kg) administration, C): 24.7 ng/g | concentration at 360 min (male, CD-1, mouse, brain, ip, 10 mg/kg, IP 10 mg/kg, brain, 360 min, individual animals, read-out: Brain concentration, Final): 20.8 ng/g | concentration at 360 min (male, CD-1, mouse, brain, ip, 10 mg/kg, IP 10 mg/kg, brain, 360 min, mean, read-out: Brain concentrations of cmpd 7827_0016 in mice following IP (10 mg/kg) administration, C): 24.3 ng/g | concentration at 480 min (male, CD-1, mouse, brain, ip, 10 mg/kg, IP 10 mg/kg, brain, 480 min, mean, read-out: Brain concentrations of cmpd 7827_0016 in mice following IP (10 mg/kg) administration, C): 26.7 ng/g | concentration at 1440 min (male, CD-1, mouse, brain, ip, 10 mg/kg, IP 10 mg/kg, brain, 1440 min, individual animals, read-out: Brain concentration, Final): 0 ng/g | concentration at 1440 min (male, CD-1, mouse, brain, ip, 10 mg/kg, IP 10 mg/kg, brain, 1440 min, mean, read-out: Brain concentrations of cmpd 7827_0016 in mice following IP (10 mg/kg) administration, C): 0 ng/g | concentration at 5 min (male, CD-1, mouse, plasma, ip, 10 mg/kg, IP 10 mg/kg, plasma, 5 min, individual animals, read-out: Plasma concentration, Final): 1340 ng/mL | concentration at 5 min (male, CD-1, mouse, plasma, ip, 10 mg/kg, IP 10 mg/kg, plasma, 5 min, mean, read-out: Plasma concentrations of cmpd 7827_0016 in mice following IP (10 mg/kg) administration, C): 1150 ng/mL | concentration at 15 min (male, CD-1, mouse, plasma, ip, 10 mg/kg, IP 10 mg/kg, plasma, 15 min, individual animals, read-out: Plasma concentration, Final): 3720 ng/mL | concentration at 15 min (male, CD-1, mouse, plasma, ip, 10 mg/kg, IP 10 mg/kg, plasma, 15 min, mean, read-out: Plasma concentrations of cmpd 7827_0016 in mice following IP (10 mg/kg) administration, C): 4580 ng/mL | concentration at 30 min (male, CD-1, mouse, plasma, ip, 10 mg/kg, IP 10 mg/kg, plasma, 30 min, individual animals, read-out: Plasma concentration, Final): 4610 ng/mL | concentration at 30 min (male, CD-1, mouse, plasma, ip, 10 mg/kg, IP 10 mg/kg, plasma, 30 min, mean, read-out: Plasma concentrations of cmpd 7827_0016 in mice following IP (10 mg/kg) administration, C): 6390 ng/mL | concentration at 60 min (male, CD-1, mouse, plasma, ip, 10 mg/kg, IP 10 mg/kg, plasma, 60 min, individual animals, read-out: Plasma concentration, Final): 6620 ng/mL | concentration at 60 min (male, CD-1, mouse, plasma, ip, 10 mg/kg, IP 10 mg/kg, plasma, 60 min, mean, read-out: Plasma concentrations of cmpd 7827_0016 in mice following IP (10 mg/kg) administration, C): 6670 ng/mL | concentration at 120 min (male, CD-1, mouse, plasma, ip, 10 mg/kg, IP 10 mg/kg, plasma, 120 min, mean, read-out: Plasma concentrations of cmpd 7827_0016 in mice following IP (10 mg/kg) administration, C): 3050 ng/mL | concentration at 240 min (male, CD-1, mouse, plasma, ip, 10 mg/kg, IP 10 mg/kg, plasma, 240 min, mean, read-out: Plasma concentrations of cmpd 7827_0016 in mice following IP (10 mg/kg) administration, C): 1220 ng/mL | concentration at 360 min (male, CD-1, mouse, plasma, ip, 10 mg/kg, IP 10 mg/kg, plasma, 360 min, individual animals, read-out: Plasma concentration, Final): 1220 ng/mL | concentration at 360 min (male, CD-1, mouse, plasma, ip, 10 mg/kg, IP 10 mg/kg, plasma, 360 min, mean, read-out: Plasma concentrations of cmpd 7827_0016 in mice following IP (10 mg/kg) administration, C): 1110 ng/mL | concentration at 480 min (male, CD-1, mouse, plasma, ip, 10 mg/kg, IP 10 mg/kg, plasma, 480 min, mean, read-out: Plasma concentrations of cmpd 7827_0016 in mice following IP (10 mg/kg) administration, C): 1230 ng/mL | concentration at 1440 min (male, CD-1, mouse, plasma, ip, 10 mg/kg, IP 10 mg/kg, plasma, 1440 min, mean, read-out: Plasma concentrations of cmpd 7827_0016 in mice following IP (10 mg/kg) administration, C): 83.4 ng/mL | Cmax (male, CD-1, mouse, plasma, ip, 10 mg/kg i.p.): 6670 ng/mL | AUC (male, CD-1, mouse, plasma, ip, 10 mg/kg i.p., read-out: plasma AUC (converted)): 24200 ng·h/mL | CSF concentration, Final (IP 10 mg/kg, 5 min, individual animals): 0 ng/mL and 47.1 ng/mL | CSF concentration, Final (IP 10 mg/kg, 15 min, individual animals): 76.0 ng/mL and 109 ng/mL and 26.8 ng/mL | CSF concentration, Final (IP 10 mg/kg, 30 min, individual animals): 63.1 ng/mL and 31.1 ng/mL and 148 ng/mL | CSF concentration, Final (IP 10 mg/kg, 60 min, individual animals): 333 ng/mL and 43.7 ng/mL and 98.0 ng/mL | CSF concentration, Final (IP 10 mg/kg, 120 min, individual animals): 23.6 ng/mL and 138.9 ng/mL and 195.0 ng/mL | CSF concentration, Final (IP 10 mg/kg, 240 min, individual animals): 8.55 ng/mL and 16.8 ng/mL and 52.8 ng/mL | CSF concentration, Final (IP 10 mg/kg, 360 min, individual animals): 72.8 ng/mL and 71.4 ng/mL | CSF concentration, Final (IP 10 mg/kg, 480 min, individual animals): 16.7 ng/mL and 5.28 ng/mL and 0 ng/mL | CSF concentration, Final (IP 10 mg/kg, 1440 min, individual animals): 32.4 ng/mL and 0 ng/mL | Brain concentration, Final (IP 10 mg/kg, brain, 5 min, individual animals): 63.0 ng/g and 61.5 ng/g | Brain concentration, Final (IP 10 mg/kg, brain, 15 min, individual animals): 140 ng/g and 112 ng/g | Brain concentration, Final (IP 10 mg/kg, brain, 30 min, individual animals): 168 ng/g and 291 ng/g | Brain concentration, Final (IP 10 mg/kg, brain, 60 min, individual animals): 124 ng/g and 174 ng/g | Brain concentration, Final (IP 10 mg/kg, brain, 120 min, individual animals): 40.2 ng/g and 117 ng/g and 89.0 ng/g | Brain concentration, Final (IP 10 mg/kg, brain, 240 min, individual animals): 26.0 ng/g and 26.4 ng/g | Brain concentration, Final (IP 10 mg/kg, brain, 360 min, individual animals): 33.7 ng/g and 18.5 ng/g | Brain concentration, Final (IP 10 mg/kg, brain, 480 min, individual animals): 9.82 ng/g and 13.1 ng/g and 57.1 ng/g | Plasma concentration, Final (IP 10 mg/kg, plasma, 5 min, individual animals): 937 ng/mL and 1166 ng/mL | Plasma concentration, Final (IP 10 mg/kg, plasma, 15 min, individual animals): 5726 ng/mL and 4307 ng/mL | Plasma concentration, Final (IP 10 mg/kg, plasma, 30 min, individual animals): 6345 ng/mL and 8215 ng/mL | Plasma concentration, Final (IP 10 mg/kg, plasma, 60 min, individual animals): 5152 ng/mL and 8232 ng/mL | Plasma concentration, Final (IP 10 mg/kg, plasma, 120 min, individual animals): 1532 ng/mL and 4227 ng/mL and 3400 ng/mL | Plasma concentration, Final (IP 10 mg/kg, plasma, 240 min, individual animals): 751 ng/mL and 1518 ng/mL and 1407 ng/mL | Plasma concentration, Final (IP 10 mg/kg, plasma, 360 min, individual animals): 1143 ng/mL and 957 ng/mL | Plasma concentration, Final (IP 10 mg/kg, plasma, 480 min, individual animals): 516 ng/mL and 763 ng/mL and 2398 ng/mL | Plasma concentration, Final (IP 10 mg/kg, plasma, 1440 min, individual animals): 250 ng/mL and 0 ng/mL
